Calls of active or inactive are those of the source. The calls are words filed in the database; no cut-off is given here.
Columns and labels:
[1] = molecular target: CDK9/cyclin T1 (Homo sapiens, UniProt P50750); experiment: Inhibition of CDK9/cyclin T1 (unknown origin) preincubated for 10 mins followed by substrate/ATP measured after 60 mins by ADP-Glo assay; type: protein-complex assay
[2] = Metabolic stability in monkey liver microsomes assessed as half life measured for 5 to 60 mins by LC-MS/MS analysis; type: ADME, Macaca mulatta, Microsome; details: rhesus monkey, time 5-60 min
[3] = AUC (0 to t) in Sprague-Dawley rat at 2 mg/kg, iv; type: ADME, organism-based; details: in vivo
[4] = Tmax in Sprague-Dawley rat at 20 mg/kg, po; type: ADME, organism-based; details: in vivo
[5] = Apparent volume of distribution in Sprague-Dawley rat at 20 mg/kg, po; type: ADME, organism-based; details: in vivo
[6] = Oral bioavailability in Sprague-Dawley rat at 20 mg/kg; type: ADME, organism-based; details: in vivo
[7] = Half life in BALB/c mouse at 2 mg/kg, iv; type: ADME, organism-based; details: in vivo
[8] = Apparent volume of distribution in BALB/c mouse at 2 mg/kg, iv; type: ADME, organism-based; details: in vivo, read-out: Vz
[9] = AUC (0 to infinity) in BALB/c mouse at 15 mg/kg, po; type: ADME, organism-based; details: in vivo
[10] = Drug concentration in plasma of BALB-c nude mouse xenografted with human NCI-H1975 cells at 15 mg/kg, iv measured after 30 mins by LC-MS/MS analysis; type: ADME, organism-based
[11] = molecular target: CDK2/Cyclin A2 (Homo sapiens) (UniProt P24941+P20248); experiment: Inhibition of CDK2/Cyclin A2 (unknown origin) at 100 nM preincubated for 10 mins followed by substrate/ATP measured after 60 mins by ADP-Glo assay relative to control; type: protein-complex assay; details: time 70.0 min
[12] = species: Homo sapiens; experiment: Inhibition of CDK12/Cyclin E1(unknown origin) at 100 nM preincubated for 10 mins followed by substrate/ATP measured after 60 mins by ADP-Glo assay relative to control; details: time 70.0 min
[13] = molecular target: CDK18/Cyclin Y (Homo sapiens) (UniProt Q07002+Q8ND76); experiment: Inhibition of CDK18/Cyclin Y(unknown origin) at 100 nM preincubated for 10 mins followed by substrate/ATP measured after 60 mins by ADP-Glo assay relative to control; type: protein-complex assay; details: time 70.0 min
[14] = tested on: A549; experiment: Anti-proliferative activity against human A549 cells assessed as cell inhibition measured after 72 hrs by MTT assay; type: functional, cell-based; details: A549, 72 h
[15] = tested on: PC-9; experiment: Anti-proliferative activity against human PC-9 cells assessed as cell inhibition measured after 72 hrs by MTT assay; type: functional, cell-based; details: PC-9, 72 h
[16] = tested on: Osimertinib-resistant NCI-H1975 cell; experiment: Induction of apoptosis in human Osimertinib-resistant NCI-H1975 cells assessed as viable cells at 0.5 uM incubated for 16 hrs by Annexin V-FITC/PI staining based flow cytometry (reference value: 89.4 %); type: functional; details: read-out: Activity
[17] = tested on: Osimertinib-resistant NCI-H1975 cell; experiment: Induction of apoptosis in human Osimertinib-resistant NCI-H1975 cells assessed as late apoptotic cells at 2 uM incubated for 16 hrs by Annexin V-FITC/PI staining based flow cytometry (reference value: 1.42 %); type: functional
[18] = tested on: Osimertinib-resistant NCI-H1975 cell; experiment: Induction of apoptosis in human Osimertinib-resistant NCI-H1975 cells assessed as necrotic cells at 2 uM incubated for 16 hrs by Annexin V-FITC/PI staining based flow cytometry (reference value: 1.17 %); type: functional
[19] = molecular target: Cyclin-dependent kinase 9 (Homo sapiens) (UniProt P50750); experiment: Inhibition of CDK9 in human Osimertinib-resistant NCI-H1975 cells assessed as decrease in p-RNAPII-ser2 level incubated for 12 hrs by Western blot analysis; type: cell-based; details: Osimertinib-resistant NCI-H1975 cell, dose 50-500 nM
Sequence of Cyclin-dependent kinase 9 (Homo sapiens) (P50750 whole entry): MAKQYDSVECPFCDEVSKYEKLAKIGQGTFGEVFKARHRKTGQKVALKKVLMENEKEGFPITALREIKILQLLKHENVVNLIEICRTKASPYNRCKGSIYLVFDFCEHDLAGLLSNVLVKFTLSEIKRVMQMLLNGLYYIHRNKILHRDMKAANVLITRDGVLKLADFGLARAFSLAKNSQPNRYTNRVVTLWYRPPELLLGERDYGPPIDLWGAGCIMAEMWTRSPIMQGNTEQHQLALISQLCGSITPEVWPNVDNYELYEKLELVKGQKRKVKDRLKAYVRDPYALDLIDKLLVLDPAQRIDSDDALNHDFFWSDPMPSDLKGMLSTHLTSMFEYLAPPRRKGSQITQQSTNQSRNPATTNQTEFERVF

[20] = molecular target: Cyclin-dependent kinase 9 (Homo sapiens) (UniProt P50750); experiment: Inhibition of CDK9 in human Osimertinib-resistant NCI-H1975 cells assessed as decrease in Mcl-1 level incubated for 12 hrs by Western blot analysis; type: cell-based; details: Osimertinib-resistant NCI-H1975 cell, dose 50-500 nM
[21] = tested on: NCI-H1975; experiment: Anti-proliferative activity against human NCI-H1975 cells assessed as cell inhibition measured after 72 hrs in presence of 100 nM JQ1 by MTT assay; type: functional, cell-based; details: NCI-H1975, 72 h
[22] = tested on: HCC827; experiment: Anti-proliferative activity against human HCC827 cells assessed as cell inhibition measured after 72 hrs in presence of 250 nM JQ1 by MTT assay; type: functional, cell-based; details: HCC827, 72 h
[23] = tested on: Osimertinib-resistant NCI-H1975 cell; experiment: Anti-proliferative activity against human Osimertinib-resistant NCI-H1975 cells assessed as cell inhibition measured after 72 hrs in presence of 250 nM JQ1 by MTT assay; type: functional, cell-based
[24] = molecular target: Cyclin-dependent kinase 9 (Homo sapiens) (UniProt P50750); experiment: Inhibition of CDK9 in human Osimertinib-resistant HCC827 cells assessed as decrease in Mcl-1 level at 100 nM incubated for 12 hrs in presence of JQ1 by Western blot analysis; type: cell-based; details: Osimertinib-resistant HCC827 cell
[25] = molecular target: Cyclin-dependent kinase 9 (Homo sapiens) (UniProt P50750); experiment: Inhibition of CDK9 in human Osimertinib-resistant HCC827 cells assessed as decrease in Mcl-1 mRNA level in presence of JQ1 by RNA-Seq analysis; type: cell-based; details: Osimertinib-resistant HCC827 cell
[26] = tested on: Osimertinib-resistant HCC827 cell; experiment: Inhibition of stem cell multi-functionality signaling in human Osimertinib-resistant HCC827 cells by KEGG analysis; type: functional, cell-based
[27] = tested on: Lung adenocarcinoma organoid; experiment: Anti-tumor activity against Almonertinib-resistant patient (#2566)-derived human Lung adenocarcinoma organoid assessed as inhibition of cell viability measured after 96 hrs; type: functional, tissue-based; details: Neoplasm
[28] = tested on: Lung adenocarcinoma organoid; experiment: Anti-tumor activity against patient (#2514)-derived human Lung adenocarcinoma organoid assessed as inhibition of cell viability measured after 96 hrs; type: functional, tissue-based; details: Neoplasm
[29] = tested on: Lung adenocarcinoma organoid; experiment: Anti-tumor activity against patient (#2223)-derived human Lung adenocarcinoma organoid assessed as inhibition of cell viability measured after 96 hrs relative to control; type: functional, Neoplasm
[30] = Toxicity in BALB-c nude mouse xenografted with human NCI-H1975 cells assessed as pathological damage in heart at 15 mg/kg, iv administered on every two days by H and E staining based analysis; type: organism-based; details: in vivo
[31] = tested on: NCI-H1975; experiment: Antitumor activity against human NCI-H1975 cells xenografted in BALB-c nude mouse assessed as tumor growth inhibition at 5 mg/kg, iv; type: functional, organism-based
[32] = Toxicity in BALB-c mouse xenografted with human NCI-H1975 cells assessed as decrease in body weight at 5 mg/kg, iv; type: organism-based; details: in vivo
[33] = Cmax in BALB/c mouse at 15 mg/kg, po; details: in vivo
[34] = Cmax in Sprague-Dawley rat at 20 mg/kg, po; details: in vivo

Sequence of CDK9/cyclin T1 (O60563 whole entry): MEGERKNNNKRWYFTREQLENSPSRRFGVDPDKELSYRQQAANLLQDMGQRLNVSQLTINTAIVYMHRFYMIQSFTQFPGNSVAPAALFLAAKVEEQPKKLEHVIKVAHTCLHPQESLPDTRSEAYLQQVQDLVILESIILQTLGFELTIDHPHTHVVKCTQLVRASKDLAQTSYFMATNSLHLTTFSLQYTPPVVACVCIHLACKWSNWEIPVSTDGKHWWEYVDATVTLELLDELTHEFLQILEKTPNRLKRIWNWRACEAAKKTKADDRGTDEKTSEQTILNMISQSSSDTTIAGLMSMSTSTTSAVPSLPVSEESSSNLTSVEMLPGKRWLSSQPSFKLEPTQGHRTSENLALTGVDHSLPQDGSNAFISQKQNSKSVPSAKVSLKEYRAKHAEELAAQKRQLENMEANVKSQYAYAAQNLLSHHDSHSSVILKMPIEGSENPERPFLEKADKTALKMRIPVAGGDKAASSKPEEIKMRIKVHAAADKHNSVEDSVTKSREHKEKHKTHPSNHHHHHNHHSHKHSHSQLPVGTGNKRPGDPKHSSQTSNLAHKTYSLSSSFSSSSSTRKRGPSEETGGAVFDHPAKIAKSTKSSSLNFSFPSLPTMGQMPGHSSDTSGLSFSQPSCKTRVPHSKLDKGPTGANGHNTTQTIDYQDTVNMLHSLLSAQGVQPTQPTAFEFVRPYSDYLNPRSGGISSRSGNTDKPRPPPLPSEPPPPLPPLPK
Sequence of CDK9/cyclin T1 (P50750 whole entry): as the sequence (P50750 whole entry) above

## CC(=O)N1CCC(NC(=O)c2ccc3cc2OCCCCCCOc2cc(ccc2F)-c2nc(ncc2F)N3)CC1
[1]
  IC50: 1.2 nM
[2]
  half-life: 59.1 min
[3]
  AUC(0-t): 2530 ng·h/mL
[4]
  Tmax: 49.8 min
[5]
  Vz: 30 L/kg
[6]
  bioavailability: 14.3%
[7]
  half-life: 252 min
[8]
  Vd: 30.7 L/kg
[9]
  AUC(0-inf): 766 ng·h/mL
[10]
  concentration at 0.5 h: 2450 ng/mL
[11]
  inhibition: 17.8%
[12]
  inhibition: 23.7%
[13]
  inhibition: 5.98%
[14]
  IC50: 140 nM
[15]
  IC50: 140 nM
[16]
  viability at 0.5 µM: 63.1%
[17]
  Activity: 22%
[18]
  Activity: 0.97%
[19]
  inhibition: Dose-dependent-effect
[20]
  inhibition: Dose-dependent-effect
[21]
  IC50: 133 nM
[22]
  IC50: 19.3 nM
[23]
  IC50: 14.6 nM
[24]
  inhibition: Active
[25]
  inhibition: Active
[26]
  inhibition: Active
[27]
  IC50: 48.3 nM
[28]
  IC50: < 50 nM
[29]
  Imax: 99.9%
[30]
  Activity: Non-toxic
[31]
  inhibition: inactive
[32]
  Activity: Non-toxic
[33]
  Cmax: 344.1 ng/mL
[34]
  Cmax: 775.6 ng/mL

Source: ChEMBL document CHEMBL6153135, “Rational Design of a Potent, Selective, and Metabolically Stable CDK9 Inhibitor to Counteract Osimertinib Resistance through Mcl-1 Suppression and Enhanced BRD4 Co-Targeting” (J Med Chem, 2025)
